Test results from patent US20220175699A1, “CO[…]-CLEAVABLE A[…] AND […]” (Ensysce Biosciences, Inc., priority 2019, published 2022).
Read-outs that look alike come from different tables or passages of the source.

Legend:
[1] = rats, fasted, IV 5 mg/kg Compound AM-9
Method: Animals were fasted overnight through 4 hours postdose prior to dosing, 4 animals per groups. Individual doses of AM-9 was calculated based on body weights taken on the day of dosing.
Blood was collected from a jugular vein into tubes containing K2EDTA anticoagulant. Blood (approximately 1 mL) was collected from each animal predose and at 0.167, 0.333, 0.5, 0.667, 0.833 1, 2, 4, and 7 hours postdose and processed for plasma. Plasma samples were evaluated for either AM-9 or amphetamine by LC-MS-MS Mass spectrometer (API 5000 AB Sciex Instruments).

[2] = male Beagle dogs, fasted, PO Compound AM-9
Method: Male Beagle dogs were fasted overnight through 4 hours postdose. Individual doses of AM-9 were calculated based on body weights taken on the day of each dosing. The liquid formulations were administered via oral gavage, 4 per group. Prior to withdrawing the gavage tube, the tube was flushed with approximately 10 mL of water.
Blood (approximately 2 mL) was collected from each animal predose and at 0.167, 0.333, 0.5, 0.75, 1, 2, 3, 4, 6, and 8 hours postdose and processed for plasma. Plasma samples were evaluated for AM-9 and amphetamine by LC-MS-MS Mass spectrometer (API 5000 AB Sciex Instruments).

[3] = rats, fasted, IV 10 mg/kg Compound AM-9; 2, 15 and 60 min postdose
Method: The formulation was a clear solution. Animals were fasted overnight through 4 hours postdose prior to dosing, 4 animals per groups. Individual doses of AM-9 was calculated based on body weights taken on the day of dosing.
Blood was collected from a jugular vein into tubes containing K2EDTA anticoagulant. Blood (approximately 1 mL) was collected from each animal predose and at 2, 15 and 60 min postdose and processed for plasma. CSF was obtained at these same time periods. Plasma and CSF samples were evaluated for AM-9 by LC-MS-MS Mass spectrometer (API 5000 AB Sciex Instruments).

[4] = male Beagle dogs, fasted, PO 0.4 mg/kg
Method: Male Beagle dogs were fasted overnight through 4 hours postdose. Individual doses of all amphetamine and AM-9 (0.4 mg/kg) were calculated based on body weights taken on the day of each dosing. The liquid formulations were administered via oral gavage, 4 per group. Prior to withdrawing the gavage tube, the tube was flushed with approximately 10 mL of water.
(§1) Blood (approximately 2 mL) was collected from each animal predose and at 0.167, 0.333, 0.5, 0.75, 1, 2, 3, 4, 6, and 8 hours postdose and processed for plasma. Plasma samples were evaluated for amphetamine by LC-MS-MS Mass spectrometer (API 5000 AB Sciex Instruments).

[5] = rats, fasted, PO 27.7 mg/kg Compound AM-9
Method: Animals were fasted overnight through 4 hours postdose prior to dosing, 4 animals per groups. Individual doses of AM-9 was calculated based on body weights taken on the day of dosing. […] Prior to withdrawing the gavage tube, the tube was flushed with approximately 2 mL of water.
Blood was collected from a jugular vein into tubes containing K2EDTA anticoagulant. Blood (approximately 1 mL) was collected from each animal predose and at 0.167, 0.333, 0.5, 0.667, 0.833 1, 2, 4, 5, and 8 hours postdose and processed for plasma. Plasma samples were evaluated for AM-9 and amphetamine by LC-MS-MS Mass spectrometer (API 5000 AB Sciex Instruments).

[6] = Plasma amphetamine following PO administration of d-amphetamine, Compound AM-9 and Vyvanse to dogs (Example 7); details: male Beagle dogs, fasted
Method: Male Beagle dogs were fasted overnight through 4 hours postdose. Individual doses of amphetamine, AM-9 and Vyvanse were calculated based on body weights taken on the day of each dosing. The liquid formulations were administered via oral gavage, 4 per group. Prior to withdrawing the gavage tube, the tube was flushed with approximately 10 mL of water.
as §1

[7] = Plasma amphetamine following PO Compound AM-9 6 mg/kg to rats without and with trypsin inhibitor nafamostat (Example 9); format: in vivo; details: fasted rats, PO Compound AM-9 6 mg/kg with 1, 2.5, 5 and 10 mg/kg Nafamostat vs alone
Method: This example provides a comparison of the immediate release of amphetamine into plasma when Compound AM-9 at a dosage of 6 mg/kg is administered PO to fasted rats alone, or with 1, 2.5, 5 and 10 mg/kg trypsin inhibitor Nafamostat.
(§2) The formulation was a clear solution. Animals were either fasted overnight through 4 hours postdose or fed ad lib prior to dosing, 4 animals per groups. […] The liquid formulation was administered via oral gavage at […].

[8] = Plasma amphetamine following PO Compound AM-9 0.6 mg/kg to rats without and with trypsin inhibitor nafamostat (Example 8); format: in vivo
Method: This example provides a comparison of the immediate release of amphetamine into plasma when Compound AM-9 at a dosage of 0.6 mg/kg is administered PO to fasted rats alone, or with 0.1 and 0.25 mg/kg trypsin inhibitor Nafamostat.
as §2
FIG. 8A depicts the mean plasma concentration of amphetamine over 8 hours after administration of Compound AM-9 at doses of 0.6 mg/kg alone and in combination with 0.1 mg/kg of Nafamostat and 0.25 mg/kg of Nafamostat. FIG. 8B depicts the mean plasma concentration of amphetamine over the first 2 hours after administration of Compound AM-9 at doses of 0.6 mg/kg alone and in combination with 0.1 mg/kg of Nafamostat and 0.25 mg/kg of Nafamostat.

[9] = fasted rats, PO Compound AM-9 0.6 mg/kg with 0.1 and 0.25 mg/kg Nafamostat vs alone

CC(=O)NCC(=O)N[C@@H](CCCNC(=N)N)C(=O)N[C@@H](C)Cc1ccccc1 [Compound AM-9, Amphetamine-arginine-glycine-acetate]
conversion of AM-9 to amphetamine in the blood [1]: very little conversion of AM-9 to amphetamine in the blood | conversion of administered AM-9 to amphetamine [2]: majority of the administered AM-9 is immediately converted to amphetamine | peak plasma concentration of AM-9 relative to that of amphetamine [2]: less than half | AM-9 crossing from plasma into the CSF [3]: very little AM-9 that crosses from plasma into the CSF | amphetamine Tmax (time to maximum plasma concentration) compared with administration of amphetamine [4]: the same Tmax | conversion of administered AM-9 to amphetamine [5]: majority of the administered AM-9 is immediately converted to amphetamine | peak plasma concentration (Cmax) of AM-9 relative to peak plasma concentration of amphetamine [5]: approximately half | Tmax for peak plasma concentration of amphetamine compared with direct administration of amphetamine [6]: the same as that from direct administration of amphetamine

N=C(N)c1ccc2cc(OC(=O)c3ccc(N=C(N)N)cc3)ccc2c1 [Nafamostat, 6-carbamimidoylnaphthalen-2-yl 4-(diaminomethyleneamino)benzoate]
effect on Cmax of amphetamine release from AM-9 [7]: reduces the Cmax | effect on Tmax of amphetamine release from AM-9 [7]: increases the Tmax | effect on Cmax of amphetamine release from AM-9 [8, 9]: reduces the Cmax | effect on Tmax of amphetamine release from AM-9 [8, 9]: increases the Tmax | effect on release of amphetamine from Compound AM-9 from oral administration ([8]; rats, PO Compound AM-9 0.6 mg/kg alone and with 0.1 or 0.25 mg/kg Nafamostat, FIGS. 8A-8B): reduces the release of amphetamine

CS(=O)(=O)O.CS(=O)(=O)O.C[C@@H](Cc1ccccc1)NC(=O)[C@@H](N)CCCCN [Vyvanse, reference compound]
Tmax for peak plasma amphetamine concentration [6]: 2 h
